How the values were obtained:
[1] = target: Recombinant full-length human IDO1 (Homo sapiens (Human), UniProt P14902); assay: IDO1 enzymatic assay (IDO inhibitory activity); format: biochemical; settings: 2 nM enzyme, 5 μM L-tryptophan, pH6.5, 30 min pre-incubation, NFK quantified by LCMS; mean values if measured multiple times; read-out: hIDO activity (IC50 in nM)
Summary of the method: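 N-His-tagged enzyme from E. coli at 2 nM in 37.5 mM phosphate pH6.5 with ascorbate, methylene blue, catalase; compounds 10 μM–0.5 nM, 0.6% DMSO, pre-incubated 30 min RT, then 5 μM L-tryptophan for 30 min RT. NFK quantified by LCMS against d5-tryptophan; IC50 from duplicate four-parameter fit, means where repeated.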

[2] = target: Recombinant human TDO comprising amino acids 19-407 (Homo sapiens (Human), UniProt P48775); assay: TDO2 enzymatic assay (TDO inhibitory activity); format: biochemical; settings: 15 nM enzyme, 200 μM L-tryptophan, pH7, 30 min pre-incubation, NFK quantified by LCMS; mean values if measured multiple times; read-out: hTDO activity (IC50 in nM)
Recombinant human TDO comprising amino acids 19-407, sequence (P48775 19-406 limits assumed): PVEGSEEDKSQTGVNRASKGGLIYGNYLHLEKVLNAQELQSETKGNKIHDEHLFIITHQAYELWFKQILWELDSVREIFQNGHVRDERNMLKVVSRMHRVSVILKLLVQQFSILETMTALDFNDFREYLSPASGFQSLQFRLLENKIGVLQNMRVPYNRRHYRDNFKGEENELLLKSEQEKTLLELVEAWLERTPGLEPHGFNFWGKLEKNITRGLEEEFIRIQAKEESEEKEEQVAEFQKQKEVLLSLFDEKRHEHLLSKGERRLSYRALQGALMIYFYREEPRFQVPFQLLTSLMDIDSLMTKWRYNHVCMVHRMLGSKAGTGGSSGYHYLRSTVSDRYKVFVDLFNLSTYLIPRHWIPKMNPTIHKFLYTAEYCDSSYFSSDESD
Summary of the method: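 His-tagged enzyme (15 nM, E. coli-expressed) in pH 7 phosphate buffer with ascorbate, catalase, BSA, Tween 20, 0.6% DMSO; 30 min RT pre-incubation with compound (10 μM–0.5 nM), then 200 μM L-tryptophan for 30 min RT. N′-formylkynurenine quantified by LCMS against deuterated tryptophan; IC50 by four-parameter fit, duplicates.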

Recombinant full-length human IDO1, sequence (P14902 whole entry): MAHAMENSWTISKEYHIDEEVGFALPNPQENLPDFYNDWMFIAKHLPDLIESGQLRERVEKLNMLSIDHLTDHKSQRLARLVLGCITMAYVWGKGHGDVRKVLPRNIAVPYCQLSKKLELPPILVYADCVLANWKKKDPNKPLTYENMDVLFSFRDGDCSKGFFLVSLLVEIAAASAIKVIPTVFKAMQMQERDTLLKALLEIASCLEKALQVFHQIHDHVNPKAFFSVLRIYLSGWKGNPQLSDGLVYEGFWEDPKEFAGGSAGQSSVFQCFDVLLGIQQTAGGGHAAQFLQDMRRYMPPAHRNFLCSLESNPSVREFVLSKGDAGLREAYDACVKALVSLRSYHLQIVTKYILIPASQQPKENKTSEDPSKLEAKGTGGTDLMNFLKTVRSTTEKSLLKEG

SMILES	IC50 [1] [nM]	IC50 [2] [nM]
CC(C)(C)C1CCC(C(O)c2c(C3CC3)sc3cncn23)CC1 (racemic) [Example 86, rac-(4-tert-Butyl-cyclohexyl)-(2-cyclopropyl-imidazo[5,1-b]thiazol-3-yl)-methanol]	511	2780
Cc1sc2cncn2c1C(O)C#Cc1ccccc1 (racemic) [Example 158, rac-1-(2-Methyl-imidazo[5,1-b]thiazol-3-yl)-3-phenyl-prop-2-yn-1-ol]	459	> 10200
OC(CC1CCCC1c1ccccc1)c1c(C2CC2)sc2cncn12 (centres unmarked) [Example 135, 1-(2-Cyclopropyl-imidazo[5,1-b]thiazol-3-yl)-2-(2-phenyl-cyclopentyl)-ethanol]	139	3770
OC(CC1CCCCC1)c1c(C(F)(F)F)sc2cncn12 (racemic) [Example 64, rac-2-Cyclohexyl-1-(2-trifluoromethyl-imidazo[5,1-b]thiazol-3-yl)-ethanol]	69	3180
OC(CC1CCCCC1)c1c(-c2ccccc2)sc2cncn12 (racemic) [Example 93, rac-2-Cyclohexyl-1-(2-phenyl-imidazo[5,1-b]thiazol-3-yl)-ethanol]	296	496
OC(CC1CC(F)(F)C1)c1c(C2CC2)sc2cncn12 (racemic) [Example 21, rac-1-(2-Cyclopropyl-imidazo[5,1-b]thiazol-3-yl)-2-(3,3-difluoro-cyclobutyl)-ethanol]	113	470
OC(CC1CCCC2CCCCC21)c1c(C2CC2)sc2cncn12 (centres unmarked) [Example 89, 1-(2-Cyclopropyl-imidazo[5,1-b]thiazol-3-yl)-2-(decahydro-naphthalen-1-yl)-ethanol]	528	2130
CCCc1sc2cncn2c1C(O)C1CCCCC1 (racemic) [Example 130, rac-Cyclohexyl-(2-propyl-imidazo[5,1-b]thiazol-3-yl)-methanol]	49.5	153
OC(CC1CCC2CCCCC2C1)c1c(C2CC2)sc2cncn12 (centres unmarked) [Example 101, 1-(2-Cyclopropyl-imidazo[5,1-b]thiazol-3-yl)-2-(decahydro-naphthalen-2-yl)-ethanol]	485	1790
OC(c1c(C2CC2)sc2cncn12)C1CCCC1 (racemic) [Example 46, rac-Cyclopentyl-(2-cyclopropyl-imidazo[5,1-b]thiazol-3-yl)-methanol]	11.4	473
CC1(c2ccccc2)CCC(C(O)c2c(C3CC3)sc3cncn23)C1 (centres unmarked) [Example 88, (2-Cyclopropyl-imidazo[5,1-b]thiazol-3-yl)-(3-methyl-3-phenyl-cyclopentyl)-methanol]	76.7	1280
OC(c1c(C2CC2)sc2cncn12)C1CCCC(C(F)(F)F)C1 (centres unmarked) [Example 104, (2-Cyclopropyl-imidazo[5,1-b]thiazol-3-yl)-(3-trifluoromethyl-cyclohexyl)-methanol]	75.7	1080
CC(C)CC1CCC(C(O)c2c(C3CC3)sc3cncn23)C1 (centres unmarked) [Example 78, (2-Cyclopropyl-imidazo[5,1-b]thiazol-3-yl)-(3-isobutyl-cyclopentyl)-methanol]	72.3	2010
Cc1sc2cncn2c1C(O)C1CCCCC1 (racemic) [Example 6, rac-Cyclohexyl-(2-methyl-imidazo[5,1-b]thiazol-3-yl)-methanol]	134	143
Cc1sc2cncn2c1[C@@H](O)C1CCCCC1 [Example 6a, (S)-Cyclohexyl-(2-methyl-imidazo[5,1-b]thiazol-3-yl)-methanol]	37.3	60.4
OC(c1c(C2CC(F)(F)C2)sc2cncn12)C1CCCCC1 (racemic) [Example 156, rac-Cyclohexyl-[2-(3,3-difluoro-cyclobutyl)-imidazo[5,1-b]thiazol-3-yl]-methanol]	1070	1780
CCn1cc(C(O)c2c(C3CC3)sc3cncn23)nn1 (racemic) [Example 193, rac-(2-Cyclopropyl-imidazo[5,1-b]thiazol-3-yl)-(1-ethyl-1H-[1,2,3]triazol-4-yl)-methanol]	498	> 10200
Cc1sc2cncn2c1C(O)[C@H]1C[C@@H]1c1ccccc1 (single isomer, unassigned) [Example 168, rac-(R*)-(2-Methyl-imidazo[5,1-b]thiazol-3-yl)-((1S*,2S*)-2-phenyl-cyclopropyl)-methanol]	123	2710
CC(C)(C)C1CCC(CC(O)c2c(C3CC3)sc3cncn23)CC1 (racemic) [Example 74, rac-2-(4-tert-Butyl-cyclohexyl)-1-(2-cyclopropyl-imidazo[5,1-b]thiazol-3-yl)-ethanol]	950	4330

SMILES	IC50 [1] [nM]	IC50 [2] [nM]
COc1ccc(C(O)c2c(C3CC3)sc3cncn23)cc1 (racemic) [Example 55, rac-(2-Cyclopropyl-imidazo[5,1-b]thiazol-3-yl)-(4-methoxy-phenyl)-methanol]	86.9	2270
CC(C)C1(C)CCC(C(O)c2c(C3CC3)sc3cncn23)C1 (centres unmarked) [Example 136, (2-Cyclopropyl-imidazo[5,1-b]thiazol-3-yl)-(3-isopropyl-3-methyl-cyclopentyl)-methanol]	33.2	579
CC1(C)CCCC1C(O)c1c(C2CC2)sc2cncn12 (centres unmarked) [Example 84, (2-Cyclopropyl-imidazo[5,1-b]thiazol-3-yl)-(2,2-dimethyl-cyclopentyl)-methanol]	74	133
OC(CC1CCCCC1c1ccccc1)c1c(C2CC2)sc2cncn12 (centres unmarked) [Example 75, 1-(2-Cyclopropyl-imidazo[5,1-b]thiazol-3-yl)-2-(2-phenyl-cyclohexyl)-ethanol]	1040	9460
Cc1sc2cncn2c1C(O)CC1CCC(C)(C)CC1 (racemic) [Example 177, rac-2-(4,4-Dimethyl-cyclohexyl)-1-(2-methyl-imidazo[5,1-b]thiazol-3-yl)-ethanol]	199	1950
OC(c1ccccc1F)c1c(C2CC2)sc2cncn12 (racemic) [Example 163, rac-(2-Cyclopropyl-imidazo[5,1-b]thiazol-3-yl)-(2-fluoro-phenyl)-methanol]	56.7	1290
OC(c1cn(C2CCC2)nn1)c1c(C2CC2)sc2cncn12 (racemic) [Example 196, rac-(1-Cyclobutyl-1H-[1,2,3]triazol-4-yl)-(2-cyclopropyl-imidazo[5,1-b]thiazol-3-yl)-methanol]	183	> 10200
OC(c1c(C2CC2)sc2cncn12)C1CCC2(CCCC2)CC1 (racemic) [Example 70, rac-(2-Cyclopropyl-imidazo[5,1-b]thiazol-3-yl)-spiro[4.5]dec-8-yl-methanol]	72.1	746
Cc1ccc(-c2sc3cncn3c2C(O)C2CCCCC2)cc1 (racemic) [Example 126, rac-Cyclohexyl-(2-p-tolyl-imidazo[5,1-b]thiazol-3-yl)-methanol]	3100	1010
OC(c1c(C2(F)CC2)sc2cncn12)C1CCCCC1 (racemic) [Example 184, rac-Cyclohexyl-[2-(1-fluoro-cyclopropyl)-imidazo[5,1-b]thiazol-3-yl]-methanol]	115	1760
CCC1CCC(C(O)c2c(C3CC3)sc3cncn23)CC1 (racemic) [Example 45, rac-(2-Cyclopropyl-imidazo[5,1-b]thiazol-3-yl)-(4-ethyl-cyclohexyl)-methanol]	35.7	583
CCc1sc2cncn2c1C(O)CC1CCCC1 (racemic) [Example 179, rac-2-Cyclopentyl-1-(2-ethyl-imidazo[5,1-b]thiazol-3-yl)-ethanol]	28.9	203
CC1(C)CC([C@H](O)c2c(C3CC3)sc3cncn23)C1 [Example 36a, (S)-(2-Cyclopropyl-imidazo[5,1-b]thiazol-3-yl)-(3,3-dimethyl-cyclobutyl)-methanol]	5.03	246
OC(c1c(C2CCCC2)sc2cncn12)C1CCCCC1 (racemic) [Example 9, rac-Cyclohexyl(2-cyclopentylimidazo[5,1-b]thiazol-3-yl)methanol]	237	193
CC(C)C1CCC(C(O)c2c(C3CC3)sc3cncn23)CC1 (racemic) [Example 72, rac-(2-Cyclopropyl-imidazo[5,1-b]thiazol-3-yl)-(4-isopropyl-cyclohexyl)-methanol]	102	1470
OC(CC1CC2CCC1O2)c1c(C2CC2)sc2cncn12 (centres unmarked) [Example 41, 1-(2-Cyclopropyl-imidazo[5,1-b]thiazol-3-yl)-2-(7-oxa-bicyclo[2.2.1]hept-2-yl)-ethanol]	93.4	2340
Cc1ccccc1C(O)c1c(C2CC2)sc2cncn12 (racemic) [Example 148, rac-(2-Cyclopropyl-imidazo[5,1-b]thiazol-3-yl)-o-tolyl-methanol]	1160	2530
COC1CCCC(CC(O)c2c(C3CC3)sc3cncn23)C1 (centres unmarked) [Example 114, 1-(2-Cyclopropyl-imidazo[5,1-b]thiazol-3-yl)-2-(3-methoxy-cyclohexyl)-ethanol]	40.5	1830

Source: patent US11267824B2, “Inhibitors of indoleamine 2,3-dioxygenase and/or tryptophan 2,3-dioxygenase” (IDORSIA PHARMACEUTICALS LTD, priority 2017, dated 2022)
